This is an account of results in PubChem BioAssay AID1508591.

By half-life is commonly meant how long it takes for the measured level to halve. Low readings indicate fast loss, high ones slow loss.

For this data set the following is noted: rat; liver microsomes; pH 7.4; 15.0 min; 1.0 µM. A general note: Liver microsomes are a subcellular fraction often used to study metabolism.
In turn, `C#CCNC(=O)c1nc(-c2ccc([S+](C)(=O)[O-])cc2)c2ccccn12` showed a half-life above 30 min. `CC1=C[C@@H](CNCc2cccnc2)[C@H](C(C)C)C[C@H]1Cc1nnc(-c2ccc([N+](=O)[O-])cc2)o1` returned a half-life of 2.13 min. On to `CCOC(=O)c1nc(Nc2ccc(N3CCC(C)CC3)cc2)c2ccccc2n1`, for which the half-life turned out to be 1.62 min.

`CC(C)(C)CC(C)(C)c1ccc(O)cc1` registered a half-life of 5.8 min. `Cc1nnn(C)c1-c1cnc2c3ccc(C(C)(C)O)cc3n([C@H](c3ccccc3)C3CCOCC3)c2c1` gave a half-life above 30 min. Consider `C[S+](=O)([O-])N1CCC(Cn2ccc3c(N4CCOCC4)nc(-c4cccc5[nH]ccc45)cc32)CC1`, for which the half-life was 15.9 min. Then `Cc1nn(CCc2nc(-c3ccc4ccccc4c3)cs2)c2[nH]c(=O)cc(C(F)(F)F)c12`, with 6.4 min; and `COc1cc(-c2ccnc3c2c(C)nn3-c2ccc(C(F)(F)F)cc2)ccc1O`, with above 30 min; and `CN(C)CCN1C(=O)c2cccc3cc(N)cc(c23)C1=O`, with above 30 min. The compound `N#Cc1nc(-c2cccc3ccccc23)oc1Nc1ccccc1` registered a half-life above 30 min. Then `CCOC(=O)N1CCc2c(sc(NCc3ccc(N(C)C)cc3)c2C(=O)Nc2ccc(OC)cc2)C1`, with above 30 min; and `O=[S+]([O-])(Nc1ccc(N2CCNCC2)cc1)c1ccc(NCc2cccc(Cl)c2O)cc1`, with above 30 min. For the compound `Cc1nnc(-c2ccccc2C(C)C)nc1NCc1ccc(-c2cccnc2)cc1`, the half-life is 5.8 min. Then `O=C(Cc1ccc(Cl)cc1)Nc1cnccc1C(=O)O`, with above 30 min; and `COc1ccc(-c2ccc3ncc4c(c3c2)n(-c2ccc(N3CCNCC3)c(C(F)(F)F)c2)c(=O)n4C)cn1`, with above 30 min. Then `COc1cccc(CNc2ccc(S(=O)(=O)Nc3ncccn3)cc2)c1O`, with above 30 min; and `Clc1ccccc1-c1nccc(-n2ccnc2)n1`, with above 30 min.

For `NC(=O)C1CCN(c2nc(-c3ccccc3F)cs2)CC1`, the half-life is 3.04 min.

As to `CC(C)(C)c1ccc(-c2csc(N3CCC(C(N)=O)CC3)n2)cc1`, the half-life came out at 13.9 min. `C[C@]12N[C@H](Cc3ccccc31)c1ccccc12`: the half-life was above 30 min. `O=C(Cc1ccc(O)cc1)N1CC(CNc2ccccc2)C2(C1)CN(c1ccccc1)C2` (stereo not given) registered a half-life of 9.42 min. As to `COc1cc(Cl)ccc1C(=O)Nc1nc(-c2ccccc2)cs1`, the half-life was 14 min.

On to `O=C(Nc1ncc(Cc2ccc(C(F)(F)F)cc2)s1)c1cnc(-c2ccccc2)o1`, for which the half-life was above 30 min. In the case of `COc1cccc(-c2noc(Nc3ccc4c(c3)OCCO4)n2)c1`, the half-life was 20.7 min. `Cc1ccc2nc(-c3cc(NC(=O)c4ccc5c(c4)OCCO5)ccc3Cl)oc2c1` had a half-life above 30 min.

Consider `CCNC(=O)Nc1ncc(-c2cc(-c3c(C)cc(OC)cc3C)nc(-c3cnccn3)n2)s1`, for which the half-life is above 30 min. Regarding `COC(=O)c1ccc(O)c2ncc(N3CCN(C)CC3)cc12`, the half-life came to 4.16 min. Then `CCS(=O)(=O)c1cccc(C(=O)Nc2ccc(-c3nc4ccccc4s3)c(O)c2)c1`, with above 30 min; and `CC(C)C[C@H](NC(=O)[C@H](CCc1ccccc1)NC(=O)CN1CCOCC1)C(=O)N[C@@H](Cc1ccccc1)C(=O)N[C@@H](CC(C)C)C(=O)[C@@]1(C)CO1`, with 3.52 min. The compound `CC1CN(c2ccc(Nc3nc(-c4ccncc4)nc4ccccc34)cc2F)CC(C)O1` (stereo not given) came in with a half-life of 5 min. In the case of `O=[S+]([O-])(Nc1ccccc1)c1ccc(NCc2cccc(C(F)(F)F)c2F)cc1`, the half-life is 9 min. Then `COc1c(O)cc2c(c1OC)-c1ccc(SC)c(=O)cc1C(NC(C)=O)CC2` (stereo not given), with above 30 min; and `CCN(CC)CCCCNc1ncc2cc(-c3c(Cl)cccc3Cl)c(NC(=O)NC(C)(C)C)nc2n1`, with above 30 min; and `N#Cc1ccccc1S(=O)(=O)Nc1cnccc1C(=O)Nc1nc(-c2ccccc2)cs1`, with 7 min. Take `O=C1Nc2ccc(I)cc2C1=Cc1cc(Br)c(O)c(Br)c1`: the half-life was above 30 min. Then `CCOc1cc(F)c(CCNC(=O)c2cc3sccc3n2Cc2ccccc2)cc1OCC`, with 1.8 min; and `Cc1ccc(C(=O)Nc2nc3nc(C)cc(=O)n3[nH]2)cc1`, with above 30 min; and `COc1ccc2c(ccn2CCC(=O)Nc2ccc3c(c2)C(=O)N2CCC[C@H]2C(=O)N3)c1`, with 9.22 min. In turn, `Fc1cc(Nc2nc(-c3ccncc3)nc3ccccc23)ccc1N1CCNCC1` yielded a half-life above 30 min. Compound `CC(C)(C)n1cnc2cc(C(=O)N3CCCCC3)ccc21` came in with a half-life of 9.7 min. `CC1CCCCN1c1ncnc(N)c1[N+](=O)[O-]` (stereo not given) registered a half-life of 15 min. Take `O=c1[nH]c(N2CCOCC2)nc2c1CCN(Cc1ccc(Cl)cc1F)CC2`: the half-life was above 30 min. As for `COc1ccc(-n2nc(C3CCCN([S+](=O)([O-])c4cccc(C(F)(F)F)c4)C3)[nH]c2=O)cc1` (stereo not given), the figure is 6.33 min; as for `COc1cccc(-c2nc3cc(NC(=O)c4ccc(C)c([N+](=O)[O-])c4)ccc3o2)c1`, above 30 min. Then `O=C(c1ccc(C(=O)N2CCC(N3CCCC3)CC2)c(Nc2ccccc2)c1)N1CCC(N2CCCC2)CC1`, with above 30 min; and `Cn1ccc2c(C(=O)NCc3cccnc3)nc(-c3ccccc3C#N)cc21`, with 5.52 min. Then `COc1ccc(-n2nc(C3CCCN(CC4CCCCC4)C3)[nH]c2=O)cc1` (stereo not given), with above 30 min; and `COc1cccc(CNc2ccc(S(=O)(=O)Nc3ncc(-c4ccccc4)s3)cc2)c1O`, with above 30 min; and `Fc1cc(Nc2nc(-c3ccncc3)nc3ccccc23)ccc1OCC(F)(F)F`, with 28 min.

In the case of `O=C1CCCC2=C1C(c1ncccc1Br)N=C(Nc1nc3ccccc3o1)N2` (stereo not given), the half-life stood at 11.4 min. As for `O=C(Nc1nnc(C2CCCCC2)s1)c1ccc(Br)s1`, the half-life is above 30 min.

Compound `Cc1ccnc(NC(=S)N2CCC(c3cccc(C(F)(F)F)c3)CC2)c1` came in with a half-life of 24 min. Then `O=C1Nc2ccccc2/C1=C/c1cc(Cl)c(O)c(Cl)c1`, with above 30 min. `Cc1noc([C@@H]2CN(C(=O)c3nn(C)c4ccccc34)C[C@H]2CO)n1` came in with a half-life above 30 min. `COc1ccc(-c2csc(NC(=O)c3ccccc3NS(=O)(=O)c3ccc(C)cc3)n2)cc1` came in with a half-life of 2.34 min. For `CC(C)(C)OC(=O)NC1CCN(c2nc(-c3ccc(Br)cc3)cs2)CC1`, the half-life was above 30 min. In the case of `Cc1ccc(S(=O)(=O)Nc2ccccc2C(=O)Nc2nc(-c3ccccc3)c(Br)s2)cc1`, the half-life turned out to be 10 min.

In the case of `CN(C)c1cccc(-c2ncnc(N3CCC(C(N)=O)CC3)n2)c1`, the half-life was 5.7 min. Compound `Oc1c(CN2CCN(c3ccccn3)CC2)cc(Cl)c2cccnc12` had a half-life of 3.23 min. Take `CCn1cc(C(=O)N2CCN(c3cccc(Cl)c3)CC2)c2cc(OC)c(OC)cc2c1=O`: the half-life is 7.12 min. In turn, `Oc1ccccc1CN1CCNc2cc(Nc3ccccc3)ncc2C1` yielded a half-life of 1.79 min. Take `CCOC(=O)[C@H]1O[C@H]1C(=O)N[C@@H](CC(C)C)C(=O)NCCC(C)C`: the half-life came out at 1.48 min. As for `CS(=O)(=O)Nc1cccc(-c2nccc(-n3ccnc3)n2)c1`, the half-life was above 30 min. For `CCOC(=O)c1ccc(N2C(=O)c3n[nH]c(-c4ccco4)c3C2c2ccc(C)cc2)cc1` (stereo not given), the half-life came out at 8.24 min. Compound `CN1CCN(c2cc(-c3nc(Nc4ccc(F)c(F)c4)c4ccccc4n3)ccn2)CC1` gave a half-life of 5.3 min.
